Assay results from patent publication US20240122978A1, “RETROVIRAL VECTOR FOR UNIVERAL RECEPTOR THERAPY” (Umoja BioPharma, Inc., priority 2019, published 2024).
Entries after “also recorded” stand apart in the source; their conditions may differ.

Test system: CAR-expressing T cells
Assay: Assessment of CAR expression and activation by flow cytometry
Type: cell-based
Details: FITC coated beads or plate bound FITC; FIGS. 2A-2F
Description: Cells were transferred to individual wells of a 96-well V-bottom plate, the plate was spun at 400×g for 5 min, cells were washed with 200 μL PBS and spun again at 400×g for 5 min. Cells were incubated for 10 min at room temperature in 50 μL/well Zombie NIR Fixable Viability Dye (diluted 1:3000 in PBS). Cells were then washed with […] buffer (1×PBS+2% FBS) and the plate was spun at 400×g for 5 min. Next, 50 μL/well of surface stain in FACS buffer were added to the cells and incubated for 45 min at 4° C.
Cells were washed with 150 μL FACS buffer and the plate was spun at 400×g for 5 min. Cells were then fixed with 100 μL/well of BD Cytofix/Cytoperm buffer for 20 min at 4° C. Cells were then washed with 100 μL BD Perm/Wash diluted 10-fold in water and the plate was spun at 400×g for 5 min. Cells were washed again with 200 μL BD Perm/Wash diluted 10-fold in water and the plate was spun again at 400×g for 5 min. 50 μL/well of intracellular stain in 1×BD Perm/Wash was added to the cells and incubated for 30 min at 4° C. Cells were washed with 150 μL, FACS buffer, the plate was spun at 400×g for 5 min and the cells were resuspended in 200 μL FACS buffer for analysis using a Beckman Coulter CytoFLEX S cytometer. As depicted in FIGS. 2A-2F, CAR-expressing T cells expand in the presence of the antigen FITC and this expansion is enhanced with rapamycin. […]

## fluorescein isothiocyanate [FITC]
  expansion/enrichment of CAR-expressing T cells in the presence of the antigen FITC: enriched; also recorded: enhanced expansion and activation; also recorded: expand
